Data: the NIST ThermoML archive (doi:10.1016/j.fluid.2018.05.008)
± gives the expanded uncertainty stated by the source.

How the values were obtained:
[1] = 100 kPa, Liquid, Vibrating tube method
[2] = xn = mol fraction of the nth substance listed; conditions: 100 kPa, Liquid, Vibrating tube method, x2 = 0.333

Row | Compound | mass density ([1]; 293.15 K) [kg/m3] | mass density ([1]; 303.15 K) [kg/m3] | mass density ([1]; 313.15 K) [kg/m3] | mass density ([1]; 323.15 K) [kg/m3] | mass density ([1]; 333.15 K) [kg/m3] | mass density ([2]; 293.15 K) [kg/m3] | mass density ([2]; 303.15 K) [kg/m3] | mass density ([2]; 313.15 K) [kg/m3] | mass density ([2]; 323.15 K) [kg/m3] | mass density ([2]; 333.15 K) [kg/m3]
1 | CCO [ethanol] | 790.6 ± 1 | 781.9 ± 1 | 773.3 ± 1 | 764.4 ± 1 | 755.1 ± 1 |  |  |  |  | 
2 | NC(N)=O [urea] + C[N+](C)(C)CCO.[Cl-] |  |  |  |  |  | 1199.7 ± 1.1 | 1194.2 ± 1.1 | 1188.6 ± 1.1 | 1183.2 ± 1.1 | 1178 ± 1.1
